Laboratory results reported in ChEMBL document CHEMBL1138109, “Semicarbazone-based inhibitors of cathepsin K, are they prodrugs for aldehyde inhibitors?” (Bioorg Med Chem Lett, 2006).
Converted amounts (≈) assume the structure as drawn. One block for each compound: values may come before it.

Legend:
Cathepsin B = Cathepsin B (Homo sapiens, UniProt P07858); test: Inhibition of recombinant human cathepsin B in a fluorescence assay
Pro-cathepsin H = molecular target: T1, Pro-cathepsin H (Homo sapiens, UniProt P09668); test: Inhibition of recombinant human cathepsin H in a fluorescence assay
T1 sequence (P09668 whole entry): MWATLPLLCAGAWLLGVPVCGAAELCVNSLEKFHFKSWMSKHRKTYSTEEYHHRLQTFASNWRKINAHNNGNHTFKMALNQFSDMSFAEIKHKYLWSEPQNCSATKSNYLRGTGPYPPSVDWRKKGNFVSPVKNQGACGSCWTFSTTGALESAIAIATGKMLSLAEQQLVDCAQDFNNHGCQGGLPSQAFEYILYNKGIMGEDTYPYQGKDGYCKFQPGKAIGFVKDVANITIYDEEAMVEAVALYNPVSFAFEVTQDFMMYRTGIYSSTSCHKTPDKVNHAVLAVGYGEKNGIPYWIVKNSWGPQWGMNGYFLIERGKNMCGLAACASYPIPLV

Procathepsin L = Procathepsin L (Homo sapiens, UniProt P07711); test: Inhibition of recombinant human cathepsin L in a fluorescence assay
Chain of Procathepsin L (P07711 whole entry): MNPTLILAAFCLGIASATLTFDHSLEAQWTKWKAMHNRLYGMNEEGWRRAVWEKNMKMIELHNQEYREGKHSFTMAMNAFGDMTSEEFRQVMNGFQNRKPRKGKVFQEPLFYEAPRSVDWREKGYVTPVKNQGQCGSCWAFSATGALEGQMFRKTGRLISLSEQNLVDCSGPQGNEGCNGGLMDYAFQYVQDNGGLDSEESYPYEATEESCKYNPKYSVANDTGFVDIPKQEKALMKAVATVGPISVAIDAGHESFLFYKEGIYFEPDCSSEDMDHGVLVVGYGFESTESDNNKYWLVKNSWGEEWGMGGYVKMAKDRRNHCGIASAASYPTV

Cathepsin K [1] = molecular target: T2, Cathepsin K (Homo sapiens, UniProt P43235); test: Inhibition of recombinant human cathepsin K in a fluorescence assay
T2 sequence (P43235 whole entry): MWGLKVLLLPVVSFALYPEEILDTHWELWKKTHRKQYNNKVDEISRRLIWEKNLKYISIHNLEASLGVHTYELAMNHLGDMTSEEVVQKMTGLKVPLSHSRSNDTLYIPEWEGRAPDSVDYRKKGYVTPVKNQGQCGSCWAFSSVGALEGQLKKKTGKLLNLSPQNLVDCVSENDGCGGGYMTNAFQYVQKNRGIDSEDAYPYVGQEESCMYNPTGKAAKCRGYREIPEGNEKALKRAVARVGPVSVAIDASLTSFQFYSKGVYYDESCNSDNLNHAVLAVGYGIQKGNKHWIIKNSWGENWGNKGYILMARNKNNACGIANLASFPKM

[2] = Permeability across MDCK cells; assay type: ADME, cell-based, Canis lupus familiaris; settings: dog
[3] = Solubility in fasted state-simulated intestinal fluid at pH 6.8; assay type: physicochemical
[4] = (§1) Terminal half life in iv dosed Han Wistar rat; assay type: ADME, organism-based; settings: Han Wistar, in vivo, read-out: beta t1/2
[5] = Clearance in Han Wistar rat; assay type: ADME, organism-based; settings: in vivo
[6] = (§2) Volume of distribution in Han Wistar rat; assay type: ADME, organism-based; settings: Han Wistar, in vivo
[7] = Oral bioavailability in male Han Wistar rat; assay type: ADME, organism-based; settings: in vivo
Rattus norvegicus [8] = test: as §1; assay type: ADME, organism-based; settings: in vivo
Rattus norvegicus [9] = species on record: Rattus norvegicus; test: as §2; assay type: ADME, organism-based; settings: in vivo
Cathepsin K [10] = molecular target: T3, Cathepsin K (Rattus norvegicus, UniProt O35186); test: Inhibition of rat cathepsin K
T3 sequence (O35186 whole entry): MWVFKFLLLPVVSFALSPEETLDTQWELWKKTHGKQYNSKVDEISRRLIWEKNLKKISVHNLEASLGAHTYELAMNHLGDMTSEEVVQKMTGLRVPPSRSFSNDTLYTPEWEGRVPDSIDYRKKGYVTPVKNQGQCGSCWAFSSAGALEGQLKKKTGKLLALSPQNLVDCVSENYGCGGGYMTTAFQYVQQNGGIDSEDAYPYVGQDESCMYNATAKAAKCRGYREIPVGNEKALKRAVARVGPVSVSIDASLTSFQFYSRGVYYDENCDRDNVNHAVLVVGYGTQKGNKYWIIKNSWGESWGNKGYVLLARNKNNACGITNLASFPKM

SMILES: CCCC[C@@H](C=O)NC(=O)O[C@H](Cc1ccccc1)C(C)C
IC50 (Cathepsin B): 27 nM
IC50 (Pro-cathepsin H): 18 nM
IC50 (Procathepsin L): 12 nM

SMILES: CCCC[C@@H](C=O)NC(=O)O[C@@H](C)Cc1ccccc1
IC50 (Pro-cathepsin H): 40 nM

SMILES: CCCC[C@@H](C=O)NC(=O)OC1(Cc2ccccc2)CCCC1
IC50 (Pro-cathepsin H): > 13000 nM

SMILES: CCCC[C@@H](/C=N/NC(=O)N1CCOCC1)NC(=O)O[C@H](Cc1ccccc1)C(C)C
IC50 (Cathepsin K [1]): 0.33 nM
IC50 (Cathepsin B): 18 nM
IC50 (Pro-cathepsin H): 190 nM
IC50 (Procathepsin L): 12 nM

SMILES: CCCC[C@@H](/C=N/NC(=O)Nc1ccccc1)NC(=O)OC(C)(C)C
IC50 (Cathepsin K [1]): 400 nM

SMILES: CCCC[C@@H](/C=N/NC(=O)N1CCCc2ccccc21)NC(=O)OC(C)(C)C
IC50 (Cathepsin K [1]): 59 nM

SMILES: CCCC[C@@H](/C=N/N[N+]1=CSCC1)NC(=O)OC(C)(C)C
IC50 (Cathepsin K [1]): 470 nM

SMILES: CCCC[C@@H](/C=N/OC(=O)N1CCOCC1)NC(=O)OC(C)(C)C
IC50 (Cathepsin K [1]): 1100 nM

SMILES: CCCC[C@@H](/C=N/NC(=O)NCc1ccccc1)NC(=O)OC(C)(C)C
IC50 (Cathepsin K [1]): 410 nM

SMILES: CCCC[C@@H](/C=N/NC(=O)SC(C)C)NC(=O)OC(C)(C)C
IC50 (Cathepsin K [1]): 830 nM

SMILES: CCCC[C@@H](/C=N/NC(=O)N1CCOCC1)NC(=O)OC(C)(C)C
IC50 (Cathepsin K [1]): 35 nM
IC50 (Cathepsin B): 32000 nM
IC50 (Pro-cathepsin H): > 13000 nM
IC50 (Procathepsin L): 11000 nM
Papp [2]: 6.2 ×10⁻⁶ cm/s
solubility [3]: 120 µg/mL (≈ 350 µM)
half-life [4]: 22 min
clearance [5]: 43 mL/min/kg
Vd [6]: 0.57 L/kg
bioavailability [7]: 3.9%

SMILES: CCCC[C@@H](/C=N/NC(=O)OC(C)C)NC(=O)OC(C)(C)C
IC50 (Cathepsin K [1]): 130 nM

SMILES: CCCC[C@@H](/C=N/NC(=O)NC(C)C)NC(=O)OC(C)(C)C
IC50 (Cathepsin K [1]): 170 nM

SMILES: CCCC[C@@H](/C=N/NC(=O)NC)NC(=O)OC(C)(C)C
IC50 (Cathepsin K [1]): 280 nM

SMILES: CCCC[C@@H](/C=N/NC(=O)N1CCc2ccccc21)NC(=O)OC(C)(C)C
IC50 (Cathepsin K [1]): 48 nM
IC50 (Cathepsin B): 35000 nM
IC50 (Pro-cathepsin H): > 13000 nM
IC50 (Procathepsin L): 14000 nM
Papp [2]: 15 ×10⁻⁶ cm/s
solubility [3]: 33 µg/mL (≈ 88.1 µM)
beta t1/2 (Rattus norvegicus [8]): 10 min
Vdss (Rattus norvegicus [9]): 0.54 L/kg
bioavailability [7]: 0%

SMILES: CCCC[C@@H](/C=N/NC(=O)N1CCCCC1)NC(=O)OC(C)(C)C
IC50 (Cathepsin K [1]): 58 nM

SMILES: CCCC[C@@H](/C=N/NC(=O)N1CCc2ccccc21)NC(=O)OC1(Cc2ccccc2)CCCC1
IC50 (Cathepsin K [1]): 1.1 nM
IC50 (Cathepsin B): 1800 nM
IC50 (Pro-cathepsin H): > 13000 nM
IC50 (Procathepsin L): 3400 nM

SMILES: CCCC[C@@H](C=O)NC(=O)OC(C)(C)C
IC50 (Cathepsin B): 32000 nM
IC50 (Pro-cathepsin H): > 13000 nM
IC50 (Procathepsin L): 8900 nM

More lines, in order of falling IC50 (Cathepsin K [1]), values ahead:

IC50 (Cathepsin K [1]): 33000 nM
SMILES: CCCC[C@@H](/C=N/N=C(N)N)NC(=O)OC(C)(C)C

IC50 (Cathepsin K [1]): 11000 nM
SMILES: CCCC[C@@H](/C=N/N(C)C(=O)NCCc1ccccc1)NC(=O)OC(C)(C)C

IC50 (Cathepsin K [1]): 520 nM
SMILES: CCCC[C@@H](/C=N/NC(=O)NCC(=O)OCC)NC(=O)OC(C)(C)C

IC50 (Cathepsin K [1]): 520 nM
SMILES: CCCC[C@@H](/C=N/N(C)C(=O)N(C)CCc1ccccc1)NC(=O)OC(C)(C)C

IC50 (Cathepsin K [1]): 490 nM
SMILES: CCCC[C@@H](/C=N/NC(=O)NCC)NC(=O)OC(C)(C)C

IC50 (Cathepsin K [1]): 470 nM
SMILES: CCCC[C@@H](/C=N/NC(=O)NCCC(=O)OCC)NC(=O)OC(C)(C)C

IC50 (Cathepsin K [1]): 350 nM
SMILES: CCCC[C@@H](/C=N/NC(N)=O)NC(=O)OC(C)(C)C

IC50 (Cathepsin K [1]): 260 nM
SMILES: CCCC[C@@H](/C=N/NC(=O)NCCc1ccccc1)NC(=O)OC(C)(C)C

IC50 (Cathepsin K [1]): 220 nM
SMILES: CCCC[C@@H](/C=N/NC(=O)c1ccccc1)NC(=O)OC(C)(C)C

IC50 (Cathepsin K [1]): 200 nM
SMILES: CCCC[C@@H](/C=N/NC(=O)CC(C)C)NC(=O)OC(C)(C)C

IC50 (Cathepsin K [1]): 180 nM
SMILES: CCCC[C@@H](/C=N/NC(=O)NC(=O)OC)NC(=O)OC(C)(C)C

IC50 (Cathepsin K [1]): 170 nM
SMILES: CCCC[C@@H](/C=N/N=C(\S)NC(C)C)NC(=O)OC(C)(C)C

IC50 (Cathepsin K [1]): 160 nM
SMILES: CCCC[C@@H](/C=N/NC(=O)NC(C)(C)C)NC(=O)OC(C)(C)C

IC50 (Cathepsin K [1]): 110 nM
SMILES: CC(C)C[C@@H](/[13CH]=N/NC(=O)N1CCOCC1)NC(=O)OC(C)(C)C

IC50 (Cathepsin K [1]): 93 nM
SMILES: CCCC[C@@H](/C=N/NC(=O)N1CCc2ccccc2C1)NC(=O)OC(C)(C)C

IC50 (Cathepsin K [1]): 72 nM
Papp [2]: 77 ×10⁻⁶ cm/s
solubility [3]: 380 µg/mL (≈ 1130 µM)
half-life [4]: 39 min
clearance [5]: 25 mL/min/kg
Vd [6]: 0.39 L/kg
bioavailability [7]: 26%
SMILES: CCCC[C@@H](/C=N/NS(=O)(=O)N(C)C)NC(=O)OC(C)(C)C

IC50 (Cathepsin K [1]): 72 nM
SMILES: CCCC[C@@H](/C=N/NC(=O)N(C)C)NC(=O)OC(C)(C)C

IC50 (Cathepsin K [1]): 45 nM
SMILES: CCCC[C@@H](/C=N/NC(=O)N(C)CCc1ccccc1)NC(=O)OC(C)(C)C

IC50 (Cathepsin K [1]): 40 nM
SMILES: CCCC[C@@H](/C=N/NC(=O)N(CC)CC)NC(=O)OC(C)(C)C

IC50 (Cathepsin K [1]): 36 nM
Papp [2]: 20 ×10⁻⁶ cm/s
solubility [3]: 71 µg/mL (≈ 217 µM)
beta t1/2 (Rattus norvegicus [8]): 18 min
Vdss (Rattus norvegicus [9]): 0.43 L/kg
bioavailability [7]: 0%
SMILES: CCCC[C@@H](/C=N/NC(=O)N1CCCC1)NC(=O)OC(C)(C)C

IC50 (Cathepsin K [1]): 31 nM
SMILES: CC(C)C[C@@H]([13CH]=O)NC(=O)OC(C)(C)C

IC50 (Cathepsin K [1]): 24 nM
SMILES: CCCC[C@@H](/C=N/NC(=O)C(F)(F)F)NC(=O)OC(C)(C)C

IC50 (Cathepsin K [1]): 0.94 nM
IC50 (Cathepsin B): 270 nM
IC50 (Pro-cathepsin H): 230 nM
IC50 (Procathepsin L): 540 nM
Papp [2]: 14 ×10⁻⁶ cm/s
solubility [3]: 60 µg/mL (≈ 148 µM)
beta t1/2 (Rattus norvegicus [8]): 9 min
Vdss (Rattus norvegicus [9]): 0.22 L/kg
bioavailability [7]: 0%
IC50 (Cathepsin K [10]): 130 nM
SMILES: CCCC[C@@H](/C=N/NC(=O)N1CCOCC1)NC(=O)O[C@@H](C)Cc1ccccc1
